Laboratory results from ChEMBL document CHEMBL3352585, “2013 Philip S. Portoghese Medicinal Chemistry Lectureship: drug discovery targeting allosteric sites” (J Med Chem, 2014).
Values belong to the compound of their own block, whether it stands above or below them.

How the values were obtained:
[1] = biological target: T1, Muscarinic acetylcholine receptor M5 (Homo sapiens, UniProt P08912); test: Positive allosteric modulator activity at human muscarinic acetylcholine receptor M5 expressed in CHO cells by fluorometric imaging plate reader; type: cell-based
T1 sequence (P08912 whole entry): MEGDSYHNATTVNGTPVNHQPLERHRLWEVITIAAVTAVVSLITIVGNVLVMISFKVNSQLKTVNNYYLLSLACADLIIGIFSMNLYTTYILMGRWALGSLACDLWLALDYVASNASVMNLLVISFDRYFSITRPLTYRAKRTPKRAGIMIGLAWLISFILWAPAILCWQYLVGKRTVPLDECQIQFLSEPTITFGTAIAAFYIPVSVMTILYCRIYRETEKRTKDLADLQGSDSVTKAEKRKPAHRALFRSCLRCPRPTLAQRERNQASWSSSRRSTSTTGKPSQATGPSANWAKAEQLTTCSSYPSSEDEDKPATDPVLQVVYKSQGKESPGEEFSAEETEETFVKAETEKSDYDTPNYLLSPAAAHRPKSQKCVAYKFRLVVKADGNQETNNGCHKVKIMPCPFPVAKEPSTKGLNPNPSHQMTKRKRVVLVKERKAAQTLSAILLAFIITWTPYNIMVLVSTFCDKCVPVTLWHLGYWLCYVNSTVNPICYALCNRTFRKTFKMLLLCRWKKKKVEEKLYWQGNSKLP

[2] = biological target: T1, Muscarinic acetylcholine receptor M5; test: Negative allosteric modulator activity at human muscarinic acetylcholine receptor M5 expressed in CHO cells by fluorometric imaging plate reader; type: cell-based
[3] = Inhibition of PKA (unknown origin); parameters: species or system Homo sapiens
Protein kinase C (PKC) = test: Inhibition of PKC (unknown origin); parameters: species or system Homo sapiens
[4] = biological target: T2, Serine/threonine-protein kinase Sgk1 (Homo sapiens, UniProt O00141); test: Inhibition of SGK (unknown origin)
T2 sequence (O00141 whole entry): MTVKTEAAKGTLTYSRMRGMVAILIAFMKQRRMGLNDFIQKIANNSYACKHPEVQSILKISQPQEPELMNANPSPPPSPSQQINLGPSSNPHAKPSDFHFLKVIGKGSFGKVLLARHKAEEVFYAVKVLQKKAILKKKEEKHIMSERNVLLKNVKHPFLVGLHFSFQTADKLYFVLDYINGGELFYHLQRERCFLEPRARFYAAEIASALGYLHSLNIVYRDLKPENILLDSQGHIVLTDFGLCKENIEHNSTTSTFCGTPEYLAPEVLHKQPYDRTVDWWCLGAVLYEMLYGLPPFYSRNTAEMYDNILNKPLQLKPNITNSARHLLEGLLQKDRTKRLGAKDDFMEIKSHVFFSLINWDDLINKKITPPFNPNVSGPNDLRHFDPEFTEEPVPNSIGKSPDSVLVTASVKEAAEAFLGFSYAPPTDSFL

[5] = biological target: T1, Muscarinic acetylcholine receptor M5; test: Silent allosteric modulator activity at human muscarinic acetylcholine receptor M5 expressed in CHO cells by fluorometric imaging plate reader; type: cell-based
[6] = biological target: T1, Muscarinic acetylcholine receptor M5; test: Allosteric agonist activity at human muscarinic acetylcholine receptor M5

Structure (SMILES): O=C(N[C@H]1C[C@@H](O)C1)c1ccc(C#Cc2cccc(F)c2)cn1
EC50 [1]: 0.033 µM

Structure (SMILES): CC(C)(N)c1ccc(-c2nc3ccccc3nc2-c2ccccc2)cc1
IC50 [3]: > 250 µM
IC50 (Protein kinase C (PKC)): > 250 µM
IC50 [4]: > 250 µM

Structure (SMILES): O=C(N[C@H]1C[C@H](O)C1)c1ccc(C#Cc2cccc(F)c2)cn1
EC50 [6]: 0.4 µM

Now from value to compound:

EC50 [2]: 3 µM
Structure (SMILES): COc1cccc(/C=N/N=C/c2cccc(OC)c2)c1

EC50 [1]: 2.6 µM
Structure (SMILES): Fc1cccc(/C=N/N=C/c2cccc(F)c2)c1

EC50 [5]: 7.6 µM
Structure (SMILES): Clc1cccc(/C=N/N=C/c2cccc(Cl)c2)c1
